Structures are written as SMILES.

Holding throughout (assay type): in vivo
Assay [1] relates to Male Sprague-Dawley rats. As to the kind of experiment: Lithium-pilocarpine induced epilepsy test (LI-PILO), prevention test, i.p. To be noted: for Anti-epileptogenesis (rat/ip) Peak Time / ED50: prevention, rat; for ED50: ip, at peak time, read-out: Anti-epileptogenesis (rat/ip) ED50(mg/kg); for Anti-epileptogenesis (rat/ip) Protection %: 6 rats. Here is the method: (§1) Biological Experimental Example 2: Lithium-Pilocarpine Induced Epilepsy Test (LI-PILO Test)
(§2) Male Sprague-Dawley rats (purchased from Orient Bio Inc. Korea) of body weight 175 grams were used for these studies and 3 rats per cage were housed for 4-5 days. On the day prior to SE, rats received 127 mg/kg lithium chloride (Sigma, St. Louis, Mo., U.S.A.) intraperitoneally (i.p.). Approximately 18-20 h following this treatment, rats were given an i.p. injection of 43 mg/kg pilocarpine (Sigma). An i.p. injection of 2 mg/kg methyl-scopolamine (Sigma) was administered 30 min prior to pilocarpine to block the effects of the muscarinic agonist on peripheral cholinergic receptors. Test drugs were dissolved in 20% tween80 (Sigma).
The drugs were administered intraperitoneally (i.p.) in a volume of 2 ul/g body weight. Pharmacological effects of all of the test materials were evaluated to compare test groups (n=6) with a control group (n=6). Control group was administered vehicle only. The efficacy was measured 0.5, 1, 2, or 4 hours after the administration of the test material. The time point that the most animals were protected was defined as peak time and the ED50 was determined at peak time. The animals were then transferred to observation cages and observed continuously for 90 min. Seizure was elicited in approximately 95% of the control group. Protection was defined as complete absence of seizure grade 3˜5 (Racine scale; Racine, 1972) over the 90-min observation period. The effective dose of the compound necessary to protect 50% of the animals against seizures compared to controls (i.e. ED50) was determined by a curve fitting program (Excel 2007, Microsoft).
(§3) The results of Lithium-pilocarpine induced epilepsy test of the sulfamate derivative compounds measured in the above Experimental Example are shown in the following Tables 6.

Assay [2] relates to Male Sprague-Dawley rats. The assay is described as above. To be noted: injection amount 30 mg/kg, 3 rats, 1 h.
The test system of the next assay is male ICR mice. As to the kind of experiment: MES test (anti-epilepsy activity), mice, oral (mMES po). To be noted: Mus musculus; for ED50: mice, at peak time. The method, then:
(§4) Biological Experimental Example. 1: Measurement of Anti-Epilepsy Activity (MES-Test)
(§5) In the MES test (Ref., G. Villetti et al. Neuropharmacology 40(2001) 866-878), an electrical stimulus (mice: 50 mA, 60 Hz, 0.2 sec, and rats: 150 mA, 60 Hz, 0.2 sec in the test animal) supplied by an 11 A Shocker (IITC Life Science Company) was delivered through corneal electrodes. All mice or rats assigned to any electroshock at peak time were treated with each test compound sample which was dissolved in 20% tween 80 prepared by saline solvent applied orally before the test. […] Three doses of the test sample were administered orally to 9-18 animals (3-6 mice per dose) for evaluating the respective doses at which 50% of the animals were protected from seizure (ED50). The ED50 value (median effective close) was calculated by Litchfield and Wicoxon log-probit method which is a dose-response relationship. Experimental animals, male ICR mice and male SD rats, were purchased from OrientBio, Samtako, or Nara Biotech, Korea, and housed in cages (4-5 mice or 3 rats per cage) for 4-5 days. The range of mice body weight was between 19 and 25 grams and range of rats body weight was between 100 and 130 grams.
(§6) The obtained results are shown as mean±sem. The difference between the groups was statistically analyzed by ANOVA, and then further examined by Dunnett's test or Bonferroni test. If p is less than 0.05, it was determined that the difference between the groups had statistical significance.
(§7) The results of anti-epileptic activity of the sulfamate derivative compounds measured in the above Experimental Example are shown in the following Tables 4 and 5.

Assay [3] relates to Male Sprague-Dawley rats. As to the kind of experiment: Lithium-pilocarpine induced epilepsy test (LI-PILO), intervention, i.v. at SE onset. To be noted: iv; rat, administered at SE onset; read-out: Therapeutic effect (min, rat/lv) ED50(mg/kg). Here is the method:
as §1, §2
The drugs were administered intravenously (i.v.) in a volume of 2 ul/g body weight at SE onset. Pharmacological effects of all of the test materials were evaluated to compare test groups (n=3-6) with a control group (n=3-6). Control group was administered vehicle only. The animals were then transferred to observation cages and observed continuously for 90 min. Seizure was elicited in approximately 95% of the control group. […]
as §3

In the next assay the test system is male SD rats. As to the kind of experiment: MES test (anti-epilepsy activity), rats, oral (rMES po). Conditions: for ED50: Rattus norvegicus, rats, at peak time. The method, then: as §4, §5, §6, §7
Setting [4] is: injection amount 150 mg/kg, 2 h.

Regarding `Cc1ncsc1[C@H]1OC(C)(C)O[C@@H]1COS(N)(=O)=O` [Example 167, ((4R, 5S)-2,2-dimethyl-5-(4-methylthiazol-5-yl)-1,3-dioxolan-4-yl)methylsulfamate], the “Anti-epileptogenesis (rat/ip) Peak Time” value in the assay with Male Sprague-Dawley rats [1] is listed as 1 h. For the same compound, the “Anti-epileptogenesis (rat/ip) Protection %” value in the assay on Male Sprague-Dawley rats [2] was 30^a(100%). In addition, the responders at 100 mg/kg with male ICR mice (injection amount 100 mg/kg, 3 mice, read-out: mMES(po) Protection %) stood at 100%.
`CC1(C)O[C@@H](COS(N)(=O)=O)[C@H](c2ccccc2Cl)O1` [Example 2, ((4S, 5S)-5-(2-chlorophenyl)-2,2-dimethyl-1,3-dioxolan-4-yl)methyl sulfamate]: the ED50 in the assay on Male Sprague-Dawley rats [3] was determined as 89 mg/kg; in the assay with Male Sprague-Dawley rats [1], 97.1 mg/kg; in the assay with male SD rats, 3.5 mg/kg; in the assay on male ICR mice it was 9 mg/kg. In the assay on Male Sprague-Dawley rats [1], the “Anti-epileptogenesis (rat/ip) Peak Time” value is listed as 4 h.
For `CC1(C)O[C@H](c2ccccc2Cl)[C@@H](COS(N)(=O)=O)O1` [Example 1, ((4R,5R)-5-(2-chlorophenyl)-2,2-dimethyl-1,3-dioxolan-4-yl)methyl sulfamate], in the assay on Male Sprague-Dawley rats [1] (setting [4]), the “Anti-epileptogenesis (rat/ip) Protection %” value is “(50%)”. Also, the “Anti-epileptogenesis (rat/ip) Peak Time” value with Male Sprague-Dawley rats [1] came out at 2 h. Also, the values for the ED50 in the assay with male SD rats and with male ICR mice were 1.2 mg/kg and 6.5 mg/kg, respectively.
For the compound `CC1(C)O[C@H](c2ccccc2F)[C@@H](COS(N)(=O)=O)O1` [Example 15, ((4R, 5R)-5-(2-fluorophenyl)-2,2-dimethyl-1,3-dioxolan-4-yl)methyl sulfamate], the “Anti-epileptogenesis (rat/ip) Protection %” value is “(16.6%)” in the assay with Male Sprague-Dawley rats [1] (injection amount 100 mg/kg, 1 h); “(50%)” with Male Sprague-Dawley rats [1] (injection amount 100 mg/kg, 2 h); 150^b(16.6%) in the assay on Male Sprague-Dawley rats [1] (setting [4]). The “rMES(po) Protection %” value in the assay with male SD rats (injection amount 50 mg/kg, 6 rats) was 50^b(66.6%). Also, the responders at 50 mg/kg in the assay with male ICR mice (injection amount 50 mg/kg, 4 mice, read-out: mMES(po) Protection %) turned out to be 100%.
With `CC1(C)O[C@@H](COS(N)(=O)=O)[C@H](c2ccccc2I)O1` [Example 28, ((4S, 5S)-5-(2-iodophenyl)-2,2-dimethyl-1,3-dioxolan-4-yl)methyl sulfamate], the ED50 was determined as 154 mg/kg in the assay with Male Sprague-Dawley rats [1], 32.7 mg/kg with male SD rats and 15 mg/kg in the assay on male ICR mice. For the same compound, the “Anti-epileptogenesis (rat/ip) Peak Time” value in the assay on Male Sprague-Dawley rats [1] was 1 h.

The values above are taken from US9937145B2, “Sulfamate derivative compound for use in preventing or treating epilepsy” (Bio-Pharm Solutions Co., Ltd., priority 2013, dated 2018).
